The text below walks through data of patent publication US20090081157A1, “Immunostimulatory Combinations for Vaccine Adjuvants” (priority 2006, published 2009).

For data set [1] the following is noted: intravenous infusion, humans with non-small cell lung cancer; cited from earlier work.
For a further data set, the system named is B16-F10 tumors. Briefly: Peritumoral immunotherapy of established B16-F10 melanoma tumors. In kind it is in vivo, C57BL/6 mice. Conditions: figure legends. As for the experimental part:
BALB/c mice were injected with 1×10^6 A 20 tumor cells s.c. and […] mice were injected with 1×10^6 B16-F10 tumor cells s.c. After a palpable tumor appeared (>4 mm), 50 μl PBS or plasmid DNA (50 μg) with or without TLR agonist molecules was injected into and around the tumors every other day×5. Tumors were measured every other day.
[…] mice were injected with 1×10^6 B16-F10 tumor cells s.c. After a palpable tumor appeared (>4 mm), 50 μl PBS or plasmid DNA (50 μg) with or without TLR agonist, in the presence or absence of cationic polymer (JetPEI™ Qbiogene Irvine, Calif.) molecules, was injected into and around the tumors every other day×5. Tumors were measured every other day.
Methods: B16-F10 melanoma cells were cultured in RPMI 1640 with 10% fetal bovine serum. Cells were detached with trypsin-EDTA and washed in phosphate-buffered saline (PBS). Then, 10E5 cells in 100 ul PBS were injected subcutaneously over the abdomen of female C57BL/6 female mice, 6- to 9-weeks old (Jackson Laboratories). […]
ATPγS, a nonhydrolyzable form of ATP was added to various agonists (pSP-D-CD40L+CpG+poly(I:C)+ATPe) and the combination was injected intratumorally in to mice presenting established B16F1 melanomas. […] Tumor size was measured every other day and plotted as the product of two orthogonal diameters (i.e., “tumor area”). […]

Take `Nc1ncnc2c1ncn2[C@@H]1O[C@H](COP(=O)(O)OP(=O)(O)OP(=O)(O)O)[C@@H](O)[C@H]1O` [ATP, adenosine 5′-triphosphate]: in data set [1], the maximum tolerated dose was 50 ug/kg per minute.
As for “polyriboinosinic-polyribocytidylic acid [Poly I:C]”, the “synergy with CD40L against established B16-F10 tumors” value in the data set on B16-F10 tumors is given as “synergizes with CD40L”.
